Data: US20260285850A1, “SUBSTITUTED OXAZOLIDINONES AND IMIDAZOLINONES AS HERBICIDES” (FMC CORPORATION, priority 2023, published 2026)

Tests used:
Assay type in all cases: in vivo
[1] = test system: ducksalad (Heteranthera limosa); test: Test B flooded paddy test, visual plant response rating 0-100; conditions: 250 g ai/ha, Flood, applied to paddy water, evaluated after 13 days
Procedure, shortened: (§1)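 Visual evaluation after 13 days. Water-applied treatment, 3 cm flood depth held constant, plants at 2-leaf stage at treatment.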

[2] = test system: sedge, umbrella (small-flower umbrella sedge, Cyperus difformis); test: as above; conditions: 250 g ai/ha, Flood, applied to paddy water, evaluated after 13 days
Procedure, shortened: as §1

rice (Oryza sativa) = test: as above; conditions: 250 g ai/ha, Flood, applied to paddy water, evaluated after 13 days
Procedure, shortened: as §1

[3] = test system: barnyardgrass (Echinochloa crusgalli); test: as above; conditions: 250 g ai/ha, Flood, applied to paddy water, evaluated after 13 days
Procedure, shortened: as §1

[4] = test system: green foxtail (Setaria viridis); test: Test A preemergence soil spray, visual injury rating 0-100; conditions: 10 days, 0 = no effect, 100 = complete control
Procedure, shortened: (§2)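 Seeds sown in loam-sand blend got a preemergence directed soil spray, or emerged plants (2-10 cm, one- to two-leaf) got a postemergence spray, of compound in non-phytotoxic solvent with surfactant. After 10 days in greenhouse, injury rated visually versus untreated controls on a 0 (no effect) to 100 (complete control) scale.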

[5] = test system: ragweed (common ragweed, Ambrosia artemisiifolia); test: as above; conditions: 10 days, 0 = no effect, 100 = complete control
Procedure, shortened: as §2

[6] = test system: blackgrass (Alopecurus myosuroides); test: as above; conditions: 10 days, 0 = no effect, 100 = complete control
Procedure, shortened: as §2

kochia (Bassia scoparia) [7] = test: as above; conditions: 10 days, 0 = no effect, 100 = complete control
Procedure, shortened: as §2

[8] = test system: barnyardgrass (Echinochloa crus-galli); test: as above; conditions: 10 days, 0 = no effect, 100 = complete control
Procedure, shortened: as §2

soybean (Glycine max) [9] = test: as above; conditions: 10 days, 0 = no effect, 100 = complete control
Procedure, shortened: as §2

[10] = test system: oat, wild (wild oat, Avena fatua); test: as above; conditions: 10 days, 0 = no effect, 100 = complete control
Procedure, shortened: as §2

corn (Zea mays) [11] = test: as above; conditions: 10 days, 0 = no effect, 100 = complete control
Procedure, shortened: as §2

[12] = test system: wheat (Triticum aestivum); test: as above; conditions: 10 days, 0 = no effect, 100 = complete control
Procedure, shortened: as §2

[13] = test system: palmer (palmer amaranth, palmer pigweed, Amaranthus palmeri); test: as above; conditions: 10 days, 0 = no effect, 100 = complete control
Procedure, shortened: as §2

[14] = test system: green foxtail (Setaria viridis); test: Test A postemergence application, visual injury rating 0-100; conditions: 10 days
Procedure, shortened: as §2

[15] = test system: ragweed (common ragweed, Ambrosia artemisiifolia); test: as above; conditions: 10 days
Procedure, shortened: as §2

[16] = test system: blackgrass (Alopecurus myosuroides); test: as above; conditions: 10 days
Procedure, shortened: as §2

kochia (Bassia scoparia) [17] = test: as above; conditions: 10 days
Procedure, shortened: as §2

[18] = test system: barnyardgrass (Echinochloa crus-galli); test: as above; conditions: 10 days
Procedure, shortened: as §2

soybean (Glycine max) [19] = test: as above; conditions: 10 days
Procedure, shortened: as §2

[20] = test system: oat, wild (wild oat, Avena fatua); test: as above; conditions: 10 days
Procedure, shortened: as §2

[21] = test system: galium (catchweed bedstraw, Galium aparine); test: as above; conditions: 10 days
Procedure, shortened: as §2

corn (Zea mays) [22] = test: as above; conditions: 10 days
Procedure, shortened: as §2

[23] = test system: ryegrass, Italian (italian ryegrass, Lolium multiflorum); test: as above; conditions: 10 days
Procedure, shortened: as §2

[24] = test system: wheat (Triticum aestivum); test: as above; conditions: 10 days
Procedure, shortened: as §2

[25] = test system: horseweed (Erigeron canadensis); test: as above; conditions: 10 days
Procedure, shortened: as §2

[26] = test system: palmer (palmer amaranth, palmer pigweed, Amaranthus palmeri); test: as above; conditions: 10 days
Procedure, shortened: as §2

[27] = 31 g ai/ha, postemergence, 0 = no effect, 100 = complete control
[28] = Postemergence, 125 g ai/ha, 0 is no effect, 100 is complete control

In the case of CC(C)OC(=O)C1=CCC(NC(=O)C2(C)CN(c3cc(F)cc(F)c3)C(=O)O2)C1 (centres unmarked) [Compound 5], the “Plant response rating, Ducksalad (0 to 100 scale, 0 is no effect and 100 is complete control)” value [1] is reported as 80, the “Plant response rating, Sedge, Umbrella (0 to 100 scale, 0 is no effect and 100 is complete control)” value [2] is reported as 95 and the “Plant response rating, Rice (0 to 100 scale, 0 is no effect and 100 is complete control)” value (rice (Oryza sativa)) is reported as 20. The “Plant response rating, Barnyardgrass (0 to 100 scale, 0 is no effect and 100 is complete control)” value [3] was 65, the “Foxtail, Green plant response rating (0-100)” value ([4]; 31 g ai/ha) was 20 and the “Foxtail, Green plant response rating (0 to 100 scale)” value ([4]; 125 g ai/ha) was 100. For the same compound, the “Ragweed plant response rating (0-100)” value ([5]; 31 g ai/ha) was 0, the “Ragweed plant response rating (0 to 100 scale)” value ([5]; 125 g ai/ha) was 0 and the “Blackgrass plant response rating (0-100)” value ([6]; 31 g ai/ha) was 30. The “Blackgrass plant response rating (0 to 100 scale)” value ([6]; 125 g ai/ha) was 40, the “Kochia plant response rating (0-100)” value (kochia (Bassia scoparia) [7]; 31 g ai/ha) was 0 and the “Kochia plant response rating (0 to 100 scale)” value (kochia (Bassia scoparia) [7]; 125 g ai/ha) was 90. The “Barnyardgrass plant response rating (0-100)” value ([8]; 31 g ai/ha) was 0, the “Barnyardgrass plant response rating (0 to 100 scale)” value ([8]; 125 g ai/ha) was 100 and the “Soybean plant response rating (0-100)” value (soybean (Glycine max) [9]; 31 g ai/ha) was 0. For the same compound, the “Soybean plant response rating (0 to 100 scale)” value (soybean (Glycine max) [9]; 125 g ai/ha) was 60, the “Oat, Wild plant response rating (0-100)” value ([10]; 31 g ai/ha) was 20 and the “Oat, Wild plant response rating (0 to 100 scale)” value ([10]; 125 g ai/ha) was 90. For the same compound, the “Corn plant response rating (0-100)” value (corn (Zea mays) [11]; 31 g ai/ha) was 0, the “Corn plant response rating (0 to 100 scale)” value (corn (Zea mays) [11]; 125 g ai/ha) was 50 and the “Wheat plant response rating (0-100)” value ([12]; 31 g ai/ha) was 0. For the same compound, the “Wheat plant response rating (0 to 100 scale)” value ([12]; 125 g ai/ha) was 80, the “Amaranth, Palmer plant response rating (0-100)” value ([13]; 31 g ai/ha) was 20 and the “Amaranth, Palmer plant response rating (0 to 100 scale)” value ([13]; 125 g ai/ha) was 100. For the same compound, the “Foxtail, Green plant response rating (0-100)” value [14, 27] was 30, the “Foxtail, Green plant response rating (0 to 100 scale)” value [14, 28] was 90 and the “Ragweed plant response rating (0-100)” value [15, 27] was 50. The “Ragweed plant response rating (0 to 100 scale)” value [15, 28] was 70, the “Blackgrass plant response rating (0-100)” value [16, 27] was 50 and the “Blackgrass plant response rating (0 to 100 scale)” value [16, 28] was 90. For the same compound, the “Kochia plant response rating (0-100)” value (kochia (Bassia scoparia) [17]; [27]) was 30, the “Kochia plant response rating (0 to 100 scale)” value (kochia (Bassia scoparia) [17]; [28]) was 80 and the “Barnyardgrass plant response rating (0-100)” value [18, 27] was 100. The “Barnyardgrass plant response rating (0 to 100 scale)” value [18, 28] was 100, the “Soybean plant response rating (0-100)” value (soybean (Glycine max) [19]; [27]) was 60 and the “Soybean plant response rating (0 to 100 scale)” value (soybean (Glycine max) [19]; [28]) was 70. For the same compound, the “Oat, Wild plant response rating (0-100)” value [20, 27] was 90, the “Oat, Wild plant response rating (0 to 100 scale)” value [20, 28] was 90 and the “Galium plant response rating (0-100)” value [21, 27] was 80. The “Galium plant response rating (0 to 100 scale)” value [21, 28] was 80, the “Corn plant response rating (0-100)” value (corn (Zea mays) [22]; [27]) was 60 and the “Corn plant response rating (0 to 100 scale)” value (corn (Zea mays) [22]; [28]) was 100. The “Ryegrass, Italian plant response rating (0-100)” value [23, 27] was 60, the “Ryegrass, Italian plant response rating (0 to 100 scale)” value [23, 28] was 90 and the “Wheat plant response rating (0-100)” value [24, 27] was 90. The “Wheat plant response rating (0 to 100 scale)” value [24, 28] was 90, the “Horseweed plant response rating (0-100)” value [25, 27] was 10 and the “Horseweed plant response rating (0 to 100 scale)” value [25, 28] was 50. For the same compound, the “Amaranth, Palmer plant response rating (0-100)” value [26, 27] was 40 and the “Amaranth, Palmer / Pigweed, Palmer plant response rating (0 to 100 scale)” value [26, 28] was 50.
